One assay has as its target NS3h 1b[con1]. The assay is described as follows: HCV NS3 helicase inhibition across viral strains, late-stage follow-up, selectivity assay for HCV NS3 helicase inhibitor project, biochemical, real-time fluorescence, strains con1 and JFH1, set 3 (AID 602275). The note with it: Recombinant NS3h, real-time fluorescence helicase unwinding.
The target in a further assay is NS3h 2a[JFH1]. The description is as above. The following applies: Recombinant NS3h, real-time fluorescence helicase unwinding.

“And” between values parts separate entries of the source, which are not always exact repeats. Equal entries are not always repeated. The source made the active and inactive calls. How the calls were made is not given here.

Take `CCN(CC)c1ccc(-c2nc3ccc(C)c(S(=O)(=O)O)c3s2)cc1`: the IC50 at NS3h 1b[con1] is 32.9 µM; at NS3h 2a[JFH1], 24.6 µM.
Taken in the same sequence, the figures for `Cc1ccc2nc(-c3ccc4nc(-c5ccc(NC(=O)Nc6ccc(Cl)cc6)cc5)sc4c3)sc2c1S(=O)(=O)O` were 3.6 µM and 4.4 µM.
Taken in the same sequence, the figures for `Cc1ccc2nc(-c3ccc(NC(=O)c4ccc(NC(=O)Nc5ccccc5)cc4)cc3)sc2c1S(=O)(=O)O` were 43.8 µM and 32.1 µM.
Consider `Cc1ccc2nc(-c3ccc4nc(-c5ccc6nc(-c7ccc8nc(-c9ccc(N)cc9)sc8c7)sc6c5)sc4c3)sc2c1S(=O)(=O)O`, for which the IC50 on NS3h 1b[con1] is 0.8 µM and 2.2 µM; on NS3h 2a[JFH1], 0.5 µM and 1.2 µM.
Consider `Cc1ccc2nc(-c3ccc(NC(=O)c4ccc(C(F)(F)F)cc4)cc3)sc2c1S(=O)(=O)O`, for which the outcome at NS3h 1b[con1] and at NS3h 2a[JFH1] was inactive.
Take `Cc1ccc2nc(-c3ccc4nc(-c5ccc(NC(=O)c6ccc7ncoc7c6)cc5)sc4c3)sc2c1S(=O)(=O)O`: the 50% inhibitory concentration (IC50) at NS3h 1b[con1] was 3.6 µM; on NS3h 2a[JFH1], 6.4 µM.
Taken in the same sequence, the figures for `Cc1ccc2nc(-c3ccc(NC(=O)c4ccc(NC(=O)c5ccc(NC(=O)OCC6c7ccccc7-c7ccccc76)cc5)cc4)cc3)sc2c1S(=O)(=O)O` were 2.5 µM and 1.9 µM.
Take `Cc1ccc2nc(-c3ccc(NC(=O)c4ccc(NC(=S)Nc5ccccc5)cc4)cc3)sc2c1S(=O)(=O)O`: the half-maximal inhibitory concentration (IC50) on NS3h 1b[con1] was 28.8 µM; on NS3h 2a[JFH1], 28.7 µM.
Take `Cc1ccc2nc(-c3ccc(NC(=O)c4ccc(NC(=O)OCC5c6ccccc6-c6ccccc65)cc4)cc3)sc2c1S(=O)(=O)O`: the 50% inhibitory concentration (IC50) at NS3h 1b[con1] is 11.8 µM; on NS3h 2a[JFH1], 11.5 µM.
Taken in the same sequence, the figures for `Cc1ccc2nc(-c3ccc4nc(-c5ccc(NC(=O)c6cc(F)ccc6C(F)(F)F)cc5)sc4c3)sc2c1S(=O)(=O)O` were 19 µM and 16.6 µM.
For the compound `Cc1ccc2nc(-c3ccc4nc(-c5ccc(NC(=O)c6ccc(CNC(=O)OCC7c8ccccc8-c8ccccc87)cc6)cc5)sc4c3)sc2c1S(=O)(=O)O`, the figures for the IC50 on NS3h 1b[con1] and at NS3h 2a[JFH1] were 4.4 µM and 4.6 µM, respectively.
For the compound `CCOc1ccc2nc(NC(=O)c3ccc4ncsc4c3)sc2c1`, the outcome at NS3h 1b[con1] was inactive. On NS3h 2a[JFH1], the IC50 result is “inactive”.
As for `CCOc1ccc2c(NNC(=O)c3cnccn3)c3c(nc2c1)CCCC3`, the outcome on NS3h 1b[con1] was inactive. On NS3h 2a[JFH1], the IC50 result is “inactive”.
For `Cc1ccc2nc(-c3ccc4nc(-c5ccc(NC(=O)c6ccc(Cl)cc6)cc5)sc4c3)sc2c1S(=O)(=O)O`, the IC50 at NS3h 1b[con1] was 3.4 µM; on NS3h 2a[JFH1] it was 2.3 µM.
Taken in the same sequence, the figures for `Cc1ccc2nc(-c3ccc(NC(=O)c4ccc(NC(=O)c5ccc(N)cc5)cc4)cc3)sc2c1S(=O)(=O)O` were 29.4 µM and 25.5 µM.
Taken in the same sequence, the figures for `Cc1ccc2nc(-c3ccc4nc(-c5ccc(NC(=O)c6ccc(NC(=O)OCC7c8ccccc8-c8ccccc87)cc6)cc5)sc4c3)sc2c1S(=O)(=O)O` were 5.4 µM and 5.8 µM.
Taken in the same sequence, the figures for `Cc1ccc2nc(-c3ccc4nc(-c5ccc(NC(=O)c6ccc(F)cc6)cc5)sc4c3)sc2c1S(=O)(=O)O` were 5.2 µM and 3 µM.
As for `Cc1ccc2nc(-c3ccc(NC(=O)c4ccc(N)cc4)cc3)sc2c1S(=O)(=O)O`, the IC50 result on NS3h 1b[con1] and on NS3h 2a[JFH1] was “inactive” throughout.
`Cc1ccc2nc(-c3ccc4nc(-c5ccc(NC(=O)c6ccc(C(C)(C)C)cc6)cc5)sc4c3)sc2c1S(=O)(=O)O`: the concentration for half-maximal inhibition (IC50) on NS3h 1b[con1] was 8.2 µM; at NS3h 2a[JFH1], 5 µM.

A word on the IC50: it is the concentration that inhibits the measured activity by half.

Values taken from PubChem BioAssay AID602275 (The Scripps Research Institute Molecular Screening Center, 2012).
